This passage reports T/C results from PubChem BioAssay AID330 (DTP/NCI, 2004).

Toxic doses and inconclusive results are not listed.

For this test, the system named is P388 leukemia ip, CD2F1 mice, survival T/C. In words: NCI In Vivo Anticancer Drug Screen. Data for tumor model P388 Leukemia (intraperitoneal) in CD2F1 (CDF1) mice. Conditions: endpoint: median survival time, higher = longer survival. The method in brief: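 Mice carrying the transplanted tumor received test compound or vehicle. Survival was recorded in each group, and the value is the treated-group measurement divided by that of the vehicle-treated control group.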

Where [1] appears, read: dose: 60.0 mg/kg/injection, schedule: Q01DX005 (ip), vehicle: saline with Tween-80.
[2] abbreviates: dose: 120.0 mg/kg/injection, schedule: Q01DX005 (ip), vehicle: saline with Tween-80.
[3] abbreviates: dose: 240.0 mg/kg/injection, schedule: Q01DX005 (ip), vehicle: saline with Tween-80.
The mark [4] stands for this setting: dose: 50.0 mg/kg/injection, schedule: Q01DX009 (ip), vehicle: saline with Tween-80.
Where [5] appears, read: dose: 100.0 mg/kg/injection, schedule: Q01DX009 (ip), vehicle: saline with Tween-80.
The mark [6] stands for this setting: dose: 50.0 mg/kg/injection, schedule: Q01DX009 (ip), vehicle: Klucel (hydroxypropylcellulose) (HPC).
Where [7] appears, read: dose: 100.0 mg/kg/injection, schedule: Q01DX009 (ip), vehicle: Klucel (hydroxypropylcellulose) (HPC).
[8] abbreviates: dose: 200.0 mg/kg/injection, schedule: Q01DX009 (ip), vehicle: Klucel (hydroxypropylcellulose) (HPC).
[9] abbreviates: dose: 200.0 mg/kg/injection, schedule: Q01DX009 (ip), vehicle: saline with Tween-80.
The mark [10] stands for this setting: dose: 50.0 mg/kg/injection, schedule: Q01DX005 (ip), vehicle: saline with Tween-80.
Where [11] appears, read: dose: 100.0 mg/kg/injection, schedule: Q01DX005 (ip), vehicle: saline with Tween-80.
Setting [12] is: dose: 200.0 mg/kg/injection, schedule: Q01DX005 (ip), vehicle: saline with Tween-80.
Setting [13] is: dose: 0.63 mg/kg/injection, schedule: Q01DX009 (ip), vehicle: water.
Where [14] appears, read: dose: 1.25 mg/kg/injection, schedule: Q01DX009 (ip), vehicle: water.
[15] abbreviates: dose: 2.5 mg/kg/injection, schedule: Q01DX009 (ip), vehicle: water.
Setting [16] is: dose: 5.0 mg/kg/injection, schedule: Q01DX009 (ip), vehicle: water.
The mark [17] stands for this setting: dose: 10.0 mg/kg/injection, schedule: Q01DX009 (ip), vehicle: water.

`Cc1ccc(C(O)(c2ccc(C)cc2)C(C)(C)O)cc1`: the T/C was 98 % of control under setting [1], 100 % of control under setting [2] and 103 % of control under setting [3].
For `c1ccc(N=C2c3ccccc3NC2(c2ccccc2)c2ccccc2)cc1`, the T/C runs as follows: under setting [4], 101 % of control; under setting [5], 93 % of control.
Take `O=C1NCCCN1C(=O)Nc1ccc(Cl)c(Cl)c1`: the T/C runs as follows: under setting [6], 101 % of control; under setting [7], 91 % of control; under setting [8], 95 % of control.
`CN(C)P(=O)(N(C)C)N1CCCCCC1`: the T/C runs as follows: under setting [4], 102 % of control; under setting [5], 106 % of control; under setting [9], 94 % of control.
For `O=C(O)/C=N/OCc1cc2c(cc1Cl)OCO2`, the T/C reads like this: (dose: 50.0 mg/kg/injection, schedule: Q04DX003 (ip), vehicle: saline sonified) 100 % of control; (dose: 100.0 mg/kg/injection, schedule: Q04DX003 (ip), vehicle: saline sonified) 100 % of control; (dose: 200.0 mg/kg/injection, schedule: Q04DX003 (ip), vehicle: saline sonified) 105 % of control.
In the case of `C=C(C)C1CNC(C(=O)O)C1CC(=O)O` (stereo not drawn), the T/C reads like this: (dose: 6.25 mg/kg/injection, schedule: Q01DX009 (ip), vehicle: saline sonified) 105 % of control; (dose: 12.5 mg/kg/injection, schedule: Q01DX009 (ip), vehicle: saline sonified) 90 % of control; (dose: 25.0 mg/kg/injection, schedule: Q01DX009 (ip), vehicle: saline sonified) 100 % of control.
As to `C=C(C)C(=O)N/C(N)=N\C(N)=O`, the T/C by setting is: (dose: 50.0 mg/kg/injection, schedule: Q01DX005 (ip), vehicle: saline) 98 % of control; (dose: 100.0 mg/kg/injection, schedule: Q01DX005 (ip), vehicle: saline) 101 % of control; (dose: 200.0 mg/kg/injection, schedule: Q01DX005 (ip), vehicle: saline) 112 % of control.
As for `Cc1cc2c3ccc(C)[n+](C)c3ccc2n1C`, the T/C is, setting by setting: (dose: 1.25 mg/kg/injection, schedule: Q01DX010 (ip), vehicle: saline) 100 % of control; (dose: 2.5 mg/kg/injection, schedule: Q01DX010 (ip), vehicle: saline) 105 % of control.
As to `O=C(Nc1ccc(Cl)c(Cl)c1)NC1CC1`, the T/C is 119 % of control under setting [4], 102 % of control under setting [5] and 93 % of control under setting [9].
`COc1cc(C)c(C(CC(=O)O)CC(=O)N(CCCl)CCCl)cc1C(C)C` (stereo not drawn): the T/C is, setting by setting: (dose: 100.0 mg/kg/injection, schedule: Q01DX003 (ip), vehicle: saline) 102 % of control; (dose: 200.0 mg/kg/injection, schedule: Q01DX003 (ip), vehicle: saline) 100 % of control; (dose: 400.0 mg/kg/injection, schedule: Q01DX003 (ip), vehicle: saline) 100 % of control.
Consider `O=C1C(Cl)=C(NC2C(O)OC(CO)C(O)C2O)C(=O)C(Cl)=C1NC1C(O)OC(CO)C(O)C1O` (stereo not drawn), for which the T/C was 96 % of control under setting [10], 90 % of control under setting [11] and 97 % of control under setting [12].
Turning to `S=C(Nc1ccc(N=Nc2ccccc2)cc1)SCc1ccccc1`, the T/C reads like this: (dose: 100.0 mg/kg/injection, schedule: Q04DX003 (ip), vehicle: saline) 98 % of control; (dose: 200.0 mg/kg/injection, schedule: Q04DX003 (ip), vehicle: saline) 92 % of control; (dose: 400.0 mg/kg/injection, schedule: Q04DX003 (ip), vehicle: saline) 91 % of control.
For `O=C(O)Cc1csc(=S)n1Cc1ccccc1`, the T/C by setting is: under setting [10], 100 % of control; under setting [11], 102 % of control; under setting [12], 90 % of control.
As to `Cc1oc(C)c2c1C(=O)N(C)C2=O`, the T/C by setting is: under setting [1], 100 % of control; under setting [2], 100 % of control; under setting [3], 103 % of control.
Turning to `COC(=O)C/C(C(=O)OC)=C1\CCCC2=C1N1CCCC1C2(CC(=O)OC)C(=O)OC` (stereo not drawn), the T/C is, setting by setting: (dose: 12.5 mg/kg/injection, schedule: Q01DX001 (ip), vehicle: Klucel (hydroxypropylcellulose) (HPC)) 97 % of control; (dose: 25.0 mg/kg/injection, schedule: Q01DX001 (ip), vehicle: Klucel (hydroxypropylcellulose) (HPC)) 98 % of control; (dose: 50.0 mg/kg/injection, schedule: Q01DX001 (ip), vehicle: Klucel (hydroxypropylcellulose) (HPC)) 100 % of control.
Regarding `O=C1CSC(=S)N1c1cccc(F)c1`, the T/C is 108 % of control (dose: 50.0 mg/kg/injection, schedule: Q01DX009 (ip), vehicle: suspension in saline); 100 % of control (dose: 100.0 mg/kg/injection, schedule: Q01DX009 (ip), vehicle: suspension in saline); 100 % of control (dose: 200.0 mg/kg/injection, schedule: Q01DX009 (ip), vehicle: suspension in saline).
As for `CCC(=O)c1ccc(OS(=O)(=O)O)cc1`, the T/C under setting [6] is 96 % of control, the T/C under setting [7] was 103 % of control and the T/C under setting [8] is 99 % of control.
`O=C1NC(c2cccc(OCc3ccccc3)c2)Nc2ccccc21` (stereo not drawn): the T/C is, setting by setting: (dose: 3.13 mg/kg/injection, schedule: Q01DX009 (ip), vehicle: Klucel (hydroxypropylcellulose) (HPC)) 94 % of control; (dose: 6.25 mg/kg/injection, schedule: Q01DX009 (ip), vehicle: Klucel (hydroxypropylcellulose) (HPC)) 107 % of control; (dose: 12.5 mg/kg/injection, schedule: Q01DX009 (ip), vehicle: Klucel (hydroxypropylcellulose) (HPC)) 102 % of control; (dose: 25.0 mg/kg/injection, schedule: Q01DX009 (ip), vehicle: Klucel (hydroxypropylcellulose) (HPC)) 100 % of control; under setting [6], 109 % of control; under setting [7], 115 % of control. Also, the T/C under setting [8] was 102 % of control.
With `COC(=O)c1cc2[n+](cc1C(=O)OC)CCc1cc3c(cc1-2)OCO3`, the T/C runs as follows: under setting [13], 99 % of control; under setting [14], 97 % of control; under setting [15], 97 % of control; under setting [16], 106 % of control; under setting [17], 99 % of control; (dose: 20.0 mg/kg/injection, schedule: Q01DX009 (ip), vehicle: water) 92 % of control.
For the compound `Cc1ccc(C=Nc2ccc(Cl)c(Cl)c2)cc1`, the T/C was 100 % of control under setting [1], 108 % of control under setting [2] and 89 % of control under setting [3].
Take `COc1cc(NS(C)(=O)=O)ccc1Nc1c2ccc([N+](=O)[O-])cc2nc2c(C)c(C)ccc12`: the T/C by setting is: (dose: 0.04 mg/kg/injection, schedule: Q01DX009 (ip), vehicle: saline with Tween-80) 120 % of control; (dose: 0.07 mg/kg/injection, schedule: Q01DX009 (ip), vehicle: saline with Tween-80) 120 % of control; (dose: 1.13 mg/kg/injection, schedule: Q01DX009 (ip), vehicle: saline with Tween-80) 157 % of control; (dose: 6.25 mg/kg/injection, schedule: Q01DX009 (ip), vehicle: saline with Tween-80) 254 % of control; (dose: 8.8 mg/kg/injection, schedule: Q04DX003 (ip), vehicle: saline with Tween-80) 218 % of control; (dose: 12.5 mg/kg/injection, schedule: Q01DX009 (ip), vehicle: saline with Tween-80) 291 % of control. For the same compound, the T/C (dose: 13.2 mg/kg/injection, schedule: Q04DX003 (ip), vehicle: saline with Tween-80) was 209 % of control; the T/C (dose: 20.0 mg/kg/injection, schedule: Q04DX003 (ip), vehicle: saline with Tween-80) is 231 % of control; the T/C (dose: 30.0 mg/kg/injection, schedule: Q04DX003 (ip), vehicle: saline with Tween-80) was 263 % of control.
Regarding `C1=C(c2ccccc2)CS1`, where the note is “dose: 100.0 mg/kg/injection, schedule: Q01DX001 (ip), vehicle: saline with Tween-80”, the T/C was 102 % of control.
`CCCN=c1c2c(OC)c(OC)ccc2cc2n1CCc1cc3c(cc1-2)OCO3`: the T/C reads like this: under setting [13], 110 % of control; under setting [14], 99 % of control; under setting [15], 110 % of control; under setting [16], 110 % of control; under setting [17], 115 % of control.
Consider `CCCCOc1ccc(NC(=O)Nc2nnc(C)s2)cc1`, for which the T/C is, setting by setting: under setting [4], 99 % of control; under setting [5], 89 % of control; under setting [9], 86 % of control.
